Active and inactive are the calls of the source. The rule behind the calls is not given here.
Assays:
[1] = biological target: T1, Amyloid-beta precursor protein (Homo sapiens, UniProt P05067); experiment: Binding affinity to amyloid beta (1 to 42) (unknown origin) assessed as binding constant K(on) by SPR analysis
[2] = biological target: T1, Amyloid-beta precursor protein; experiment: Binding affinity to amyloid beta (1 to 42) (unknown origin) assessed as dissociation constant by SPR analysis
[3] = biological target: T1, Amyloid-beta precursor protein; experiment: Binding affinity to amyloid beta (1 to 42) (unknown origin) assessed as binding constant K(off) by SPR analysis
MDA-MB-468 [4] = experiment: Protection against amyloid beta-induced cytotoxicity in human MDA-MB-468 cells at 0.5 uM by MTT assay; format: functional, cell-based
MDA-MB-468 [5] = experiment: Induction of amyloid beta (1 to 42) degradation in lysosome of human MDA-MB-468 cells assessed as decrease in fluorescence signal at 1 uM incubated for 48 to 72 hrs by FITC based flow cytometry analysis; format: subcellular; conditions: time 48-72 hrs

T1 sequence (P05067 whole entry): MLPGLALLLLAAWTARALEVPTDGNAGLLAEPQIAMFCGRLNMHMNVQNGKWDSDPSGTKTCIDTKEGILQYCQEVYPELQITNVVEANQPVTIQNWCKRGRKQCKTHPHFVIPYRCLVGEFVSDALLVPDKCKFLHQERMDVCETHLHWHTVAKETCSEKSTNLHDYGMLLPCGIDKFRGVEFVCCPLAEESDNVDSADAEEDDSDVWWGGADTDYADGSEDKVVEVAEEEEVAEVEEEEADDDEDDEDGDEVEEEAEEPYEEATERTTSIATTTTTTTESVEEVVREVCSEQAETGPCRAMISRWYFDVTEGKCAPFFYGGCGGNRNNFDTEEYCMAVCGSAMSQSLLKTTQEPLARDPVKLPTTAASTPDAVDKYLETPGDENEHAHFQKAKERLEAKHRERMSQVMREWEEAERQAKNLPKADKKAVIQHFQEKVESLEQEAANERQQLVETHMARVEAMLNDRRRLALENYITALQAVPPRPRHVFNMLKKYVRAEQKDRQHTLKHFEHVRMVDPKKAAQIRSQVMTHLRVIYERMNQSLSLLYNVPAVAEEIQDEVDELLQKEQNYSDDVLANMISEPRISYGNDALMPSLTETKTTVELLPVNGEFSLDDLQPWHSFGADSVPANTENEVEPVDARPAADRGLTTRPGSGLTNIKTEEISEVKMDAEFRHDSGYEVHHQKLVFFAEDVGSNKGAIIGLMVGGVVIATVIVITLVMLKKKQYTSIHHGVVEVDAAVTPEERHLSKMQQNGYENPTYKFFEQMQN

Row | Compound | K [1] | Kd [2] | K [3] | Activity (MDA-MB-468 [4]) | Activity (MDA-MB-468 [5])
1 | NCCOCCO[C@@H]1O[C@@H](COS(=O)(=O)O)[C@@H](O[C@@H]2O[C@@H](COS(=O)(=O)O)[C@@H](O[C@@H]3O[C@@H](COS(=O)(=O)O)[C@@H](O[C@@H]4O[C@@H](COS(=O)(=O)O)[C@@H](OS(=O)(=O)O)[C@H](O)[C@H]4OS(=O)(=O)O)[C@H](O)[C@H]3OS(=O)(=O)O)[C@H](O)[C@H]2OS(=O)(=O)O)[C@H](O)[C@H]1OS(=O)(=O)O | 2.45 10^5/Ms | 90.2 nM | 2.21 10^-2/s | – | –
2 | CC(C)CCC[C@@H](C)[C@H]1CC[C@H]2[C@@H]3CC=C4C[C@@H](OCCC(=O)NCCOCCOCCNC(=O)CCC(=O)N5Cc6ccccc6-c6c(nnn6CCC[C@H](NC(=O)[C@H](CCCCNC(=O)CCn6nnc7c6-c6ccccc6CN(C(=O)CCC(=O)NCCCO[C@@H]6O[C@@H](C(=O)O)[C@@H](O[C@H]8O[C@H](COS(=O)(=O)O)[C@@H](O[C@@H]9O[C@@H](C(=O)O)[C@@H](O[C@H]%10O[C@H](COS(=O)(=O)O)[C@@H](O[C@@H]%11O[C@@H](C(=O)O)[C@@H](O[C@H]%12O[C@H](COS(=O)(=O)O)[C@@H](O)[C@H](O)[C@H]%12NS(=O)(=O)O)[C@H](O)[C@H]%11OS(=O)(=O)O)[C@H](O)[C@H]%10NS(=O)(=O)O)[C@H](O)[C@H]9OS(=O)(=O)O)[C@H](O)[C@H]8NS(=O)(=O)O)[C@H](O)[C@H]6OS(=O)(=O)O)c6ccccc6-7)NC(=O)[C@H](CCCCNC(=O)CCn6nnc7c6-c6ccccc6CN(C(=O)CCC(=O)NCCCO[C@@H]6O[C@@H](C(=O)O)[C@@H](O[C@H]8O[C@H](COS(=O)(=O)O)[C@@H](O[C@@H]9O[C@@H](C(=O)O)[C@@H](O[C@H]%10O[C@H](COS(=O)(=O)O)[C@@H](O[C@@H]%11O[C@@H](C(=O)O)[C@@H](O[C@H]%12O[C@H](COS(=O)(=O)O)[C@@H](O)[C@H](O)[C@H]%12NS(=O)(=O)O)[C@H](O)[C@H]%11OS(=O)(=O)O)[C@H](O)[C@H]%10NS(=O)(=O)O)[C@H](O)[C@H]9OS(=O)(=O)O)[C@H](O)[C@H]8NS(=O)(=O)O)[C@H](O)[C@H]6OS(=O)(=O)O)c6ccccc6-7)NC(=O)[C@H](CCCCNC(=O)CCn6nnc7c6-c6ccccc6CN(C(=O)CCC(=O)NCCCO[C@@H]6O[C@@H](C(=O)O)[C@@H](O[C@H]8O[C@H](COS(=O)(=O)O)[C@@H](O[C@@H]9O[C@@H](C(=O)O)[C@@H](O[C@H]%10O[C@H](COS(=O)(=O)O)[C@@H](O[C@@H]%11O[C@@H](C(=O)O)[C@@H](O[C@H]%12O[C@H](COS(=O)(=O)O)[C@@H](O)[C@H](O)[C@H]%12NS(=O)(=O)O)[C@H](O)[C@H]%11OS(=O)(=O)O)[C@H](O)[C@H]%10NS(=O)(=O)O)[C@H](O)[C@H]9OS(=O)(=O)O)[C@H](O)[C@H]8NS(=O)(=O)O)[C@H](O)[C@H]6OS(=O)(=O)O)c6ccccc6-7)NC(=O)[C@H](CCCCNC(=O)CCn6nnc7c6-c6ccccc6CN(C(=O)CCC(=O)NCCCO[C@@H]6O[C@@H](C(=O)O)[C@@H](O[C@H]8O[C@H](COS(=O)(=O)O)[C@@H](O[C@@H]9O[C@@H](C(=O)O)[C@@H](O[C@H]%10O[C@H](COS(=O)(=O)O)[C@@H](O[C@@H]%11O[C@@H](C(=O)O)[C@@H](O[C@H]%12O[C@H](COS(=O)(=O)O)[C@@H](O)[C@H](O)[C@H]%12NS(=O)(=O)O)[C@H](O)[C@H]%11OS(=O)(=O)O)[C@H](O)[C@H]%10NS(=O)(=O)O)[C@H](O)[C@H]9OS(=O)(=O)O)[C@H](O)[C@H]8NS(=O)(=O)O)[C@H](O)[C@H]6OS(=O)(=O)O)c6ccccc6-7)NC(=O)[C@H](CCCCNC(=O)CCn6nnc7c6-c6ccccc6CN(C(=O)CCC(=O)NCCCO[C@@H]6O[C@@H](C(=O)O)[C@@H](O[C@H]8O[C@H](COS(=O)(=O)O)[C@@H](O[C@@H]9O[C@@H](C(=O)O)[C@@H](O[C@H]%10O[C@H](COS(=O)(=O)O)[C@@H](O[C@@H]%11O[C@@H](C(=O)O)[C@@H](O[C@H]%12O[C@H](COS(=O)(=O)O)[C@@H](O)[C@H](O)[C@H]%12NS(=O)(=O)O)[C@H](O)[C@H]%11OS(=O)(=O)O)[C@H](O)[C@H]%10NS(=O)(=O)O)[C@H](O)[C@H]9OS(=O)(=O)O)[C@H](O)[C@H]8NS(=O)(=O)O)[C@H](O)[C@H]6OS(=O)(=O)O)c6ccccc6-7)NC(=O)[C@H](C)NC(=O)CCCCC[N+]6=C(/C=C/C=C/C=C7\N(C)c8ccccc8C7(C)C)C(C)(C)c7ccccc76)C(N)=O)-c6ccccc65)CC[C@]4(C)[C@H]3CC[C@]12C | – | – | – | Active | Active
3 | NCCCO[C@@H]1O[C@@H](C(=O)O)[C@@H](O[C@H]2O[C@H](COS(=O)(=O)O)[C@@H](O[C@@H]3O[C@@H](C(=O)O)[C@@H](O[C@H]4O[C@H](COS(=O)(=O)O)[C@@H](O[C@@H]5O[C@@H](C(=O)O)[C@@H](O[C@H]6O[C@H](COS(=O)(=O)O)[C@@H](O)[C@H](O)[C@H]6NS(=O)(=O)O)[C@H](O)[C@H]5OS(=O)(=O)O)[C@H](O)[C@H]4NS(=O)(=O)O)[C@H](O)[C@H]3OS(=O)(=O)O)[C@H](O)[C@H]2NS(=O)(=O)O)[C@H](O)[C@H]1OS(=O)(=O)O | 2.47 10^5/Ms | 90.3 nM | 2.23 10^-2/s | – | –

Source: ChEMBL document CHEMBL6182927, “Heparan Sulfate-Based Neoproteoglycan for Targeted Lysosomal Degradation of Amyloid-β” (J Med Chem, 2025)
